Laboratory results from patent publication US20050010126A1, “Assessment of concentration of inhalational compounds in the brain” (priority 2001, published 2005).

Experiments:
[1] = alveolar membrane factor M of an inhalational compound; format: in vivo, patients
Text: As the gas penetrates the alveolar membrane and enters the pulmonary capillary blood flow, it must follow the Fick's principal. See Katzung, R. G. (1998) Basic principles, introduction in basic and clinical pharmacology Appleton-Lange p 5. The Fick's principal defines the rate of penetrating the alveolar membrane as: DAk/x (Ci-Cb') D is a diffusion constant, A is the area of the membrane (proportional to the pulmonary capillary flow or cardiac output), k is a solubility coefficient, x is the thickness of the membrane, Ci is an inspired compound concentration, and Cb' is the mixed venous compound concentration. Assuming that the pulmonary capillary flow or the cardiac output is constant, then, for a given inhalational compound, DAk/x is a constant. This constant DAk/x is defined as a membrane factor, M, which varies from one inhalational compound to another. […] Since the membrane factor may vary slightly among patients, a more precise determination of the membrane factor can be performed as described below. The rate of penetrating the alveolar membrane DAk/x (Ci-Cb') can be expressed as: M(Ci-Cb'), in which M is DAk/x. When measuring an uptake of an inhalational compound-containing gas in each breathing cycle, the rate of the uptake is a function of a difference between the inspired concentration (Ci) and the expired concentration (Ce). The difference can be expressed as: Ci-Ce. Ci-Ce. and M (Ci-Cb') both represent the rate of uptake of an inhalational compound: Ci-Ce=M(Ci-Cb'), or M=(Ci-Ce)/(Ci-Cb'). During the initial introduction of an inhalational compound (before the FRC is filled with the gas), the membrane factor M for an individual can be approximated by assuming Cb'=0: M=(Ci-Ce)/Ci=1-(Ce/Ci).

[2] = assessment of mixed venous and brain anesthetic concentration from inspired and expired concentrations
Text: At the stage of anesthesia (after the FRC is filled with the gas), the equation: Ci′−Ce′=M (Ci′−Cb′) can be used to calculate the compound concentration in the mixed venous blood (Cb′), in which Ci′ and Cb′ are the inspired compound concentration and the expired compound concentration, respectively: Cb′=[Ci′(M−1)+Ce′]/M.
As discussed above, Cb=(A+J)/2 and (A+J)/2=(Ce′+2Cb′)/3 or (Ce′+3Cb′)/4, the compound concentration in the brain (Cb) can be expressed as: Cb=(Ce′+2Cb′)/3 or (Ce+3Cb′)/4.
Thus, with measurements of the expired compound concentration (Ce′) and the mixed venous compound concentration (Cb′), the compound concentration in the brain (Cb) can be readily obtained. Below are two examples of how to assess brain anesthetic concentrations by this method.
A tube is connected to the circle system of an anesthesia machine consisting of gas flowmeters, a compound vaporizer, supply of oxygen, air and nitrous oxide gas, and a ventilator (e.g., Detex-Ohmeda, Finland, or Drager, Germany). The gas is then delivered to the patient by the anesthesia machine. […] Near the connection between the circle system and the tube, a side arm sampling site is linked to a gas monitoring equipment (e.g., an infra-red monitor or a mass spectrometer). Typically, a sampling speed is 200 mL/min. […] A more precise determination of M is performed at the end of 3 min, when 85-95% of the FRC has been filled with the gas.

[3] = general value for the compound, for most patients

SMILES: COC(F)(F)C(Cl)Cl [methoxyflurane]
- membrane factor M (DAk/x) [1, 3]: 0.8

SMILES: FC(F)OC(Cl)C(F)(F)F (stereo not drawn) [isoflurane]
- membrane factor M (DAk/x) ([1]; human, in vivo): 0.4

SMILES: FCOC(C(F)(F)F)C(F)(F)F [sevoflurane]
- brain concentration (Cb) = (Ce'+2Cb')/3 ([2]; human, in vivo, 30 min): 1.77%
- concentration in the mixed venous blood (Cb') ([2]; human, in vivo, 30 min): 1.16%
- patient's membrane factor M = (Ci-Ce)/Ci ([1]; human, in vivo): 0.214

SMILES: FC(F)OC(F)C(F)(F)F (stereo not drawn) [desflurane]
- concentration in the brain (Cb) = (Ce'+3Cb')/4 ([2]; desflurane, inspired 6.2%, expired 5.4%, M 0.2): 3.0%
- patient's membrane factor M = (Ci-Ce)/Ci ([1]; desflurane, inspired 6%, expired 4.8% at 3-4 minutes (85-95% of FRC filled)): 0.2
- membrane factor M (DAk/x) [1, 3]: 0.2

SMILES: FC(F)(F)C(Cl)Br (stereo not drawn) [halothane]
- membrane factor M (DAk/x) ([1]; human, in vivo): 0.5
